Experimental data: patent publication US20260184702A1, “SYNTHESIS, PHARMACOLOGY AND USE OF NEW WATER-SOLUBLE AND SELECTIVE FMS-LIKE TYROSINE KINASE3 (FLT3) INHIBITORS” (Universität Regensburg, priority 2022, published 2026)
In brackets after ≈: the same amount, converted by molar mass. Entries after “also recorded” stand apart in the source; their conditions may differ. Counter-ions that a name gives are not always drawn.

Tests used:
[1] = Solubility test by UV-Vis spectroscopy of saturated solutions; format: physicochemical; conditions: saturated solution; for Solubility Water: ultrapure water
Protocol: All UV-Vis measurements were carried out with an Agilent Cary 60 UV-Vis 2.00 between 800-200 nm. The absorbance was measured with a scan rate of 300.0 nm/min, a data interval of 0.50 nm and an UV-Vis Average Time of 0.10 s. For all measurements a cuvette with 10 mm light path was used. A calibration curve was plotted from several different concentrations and the solubility of the respective compound was determined by measuring the absorbance of a diluted saturated solution. As a blank curve a mixture of ultrapure water and ethanol in a ratio of 1:1 or 5:95 was recorded. For the calibration curve a 100 μM or a 10 μM solution of the compound in an ultrapure water:ethanol (1:1) or (5:95)-mixture was prepared and diluted to obtain at least 6 concentrations. […] The supernatant was taken using a syringe and filtered through a syringe filter (RC Membrane). The saturated solution was diluted with ultrapure water and ethanol to obtain an appropriate concentration in a water:ethanol (1:1) or (5:95)-mixture. The long wave absorbance maximum was used for determination of the solubility (mean values, determination in triplicate). […] By plotting the concentration of the solution against the absorbance values at the previously determined wavelength maximum a calibration curve was obtained (FIG. 1B).

c-KIT = target: T1, c-KIT (Homo sapiens, UniProt P10721); experiment: Cellular c-KIT phosphorylation assay in Mo7e cells (sandwich-ELISA); format: cell-based; conditions: Mo7e cells, 90 min compound, SCF stimulation; read-out: IC50 [nM] inhibition of c-KIT in phosphorylation assay
T1 construct: expresses endogenously a high level of wild-type c-KIT; endogenous in cells; host or cells: Mo7e (human acute megakaryoblastic leukemia)
Protocol: In the cellular c-KIT phosphorylation assay the human acute megakaryoblastic leukemia cell line Mo7e was used, which expresses endogenously a high level of wild-type c-KIT. Stimulation of these cells with human stem cell factor (SCF) results in receptor tyrosine autophosphorylation. Mo7e cells were plated in RPMI supplemented with 20% FCS and 10 ng/ml GM-CSF in multiwell cell culture plates. After serum- and growth factor-starvation overnight cells were incubated with compounds (90 min at 37° C.) in serum-free medium. […] For stimulation, cells were treated with 100 ng/ml SCF for 3 min at room temperature. After cell lysis quantification of receptor autophosphorylation was assessed in 96 well plates via sandwich-ELISA using a kinase specific capture antibody and an anti-phosphotyrosine detection antibody.

human FLT3-ITD = target: T2, human FLT3-ITD (Homo sapiens, UniProt P36888); experiment: Cellular FLT3-ITD phosphorylation assay in MEF-FLT3-ITD cells (sandwich-ELISA); format: cell-based; conditions: 90 min compound, FLT3-ligand stimulation, read-out: IC50 FLT3-ITD [nM] in phosphorylation assay
T2 sequence (P36888 1-993): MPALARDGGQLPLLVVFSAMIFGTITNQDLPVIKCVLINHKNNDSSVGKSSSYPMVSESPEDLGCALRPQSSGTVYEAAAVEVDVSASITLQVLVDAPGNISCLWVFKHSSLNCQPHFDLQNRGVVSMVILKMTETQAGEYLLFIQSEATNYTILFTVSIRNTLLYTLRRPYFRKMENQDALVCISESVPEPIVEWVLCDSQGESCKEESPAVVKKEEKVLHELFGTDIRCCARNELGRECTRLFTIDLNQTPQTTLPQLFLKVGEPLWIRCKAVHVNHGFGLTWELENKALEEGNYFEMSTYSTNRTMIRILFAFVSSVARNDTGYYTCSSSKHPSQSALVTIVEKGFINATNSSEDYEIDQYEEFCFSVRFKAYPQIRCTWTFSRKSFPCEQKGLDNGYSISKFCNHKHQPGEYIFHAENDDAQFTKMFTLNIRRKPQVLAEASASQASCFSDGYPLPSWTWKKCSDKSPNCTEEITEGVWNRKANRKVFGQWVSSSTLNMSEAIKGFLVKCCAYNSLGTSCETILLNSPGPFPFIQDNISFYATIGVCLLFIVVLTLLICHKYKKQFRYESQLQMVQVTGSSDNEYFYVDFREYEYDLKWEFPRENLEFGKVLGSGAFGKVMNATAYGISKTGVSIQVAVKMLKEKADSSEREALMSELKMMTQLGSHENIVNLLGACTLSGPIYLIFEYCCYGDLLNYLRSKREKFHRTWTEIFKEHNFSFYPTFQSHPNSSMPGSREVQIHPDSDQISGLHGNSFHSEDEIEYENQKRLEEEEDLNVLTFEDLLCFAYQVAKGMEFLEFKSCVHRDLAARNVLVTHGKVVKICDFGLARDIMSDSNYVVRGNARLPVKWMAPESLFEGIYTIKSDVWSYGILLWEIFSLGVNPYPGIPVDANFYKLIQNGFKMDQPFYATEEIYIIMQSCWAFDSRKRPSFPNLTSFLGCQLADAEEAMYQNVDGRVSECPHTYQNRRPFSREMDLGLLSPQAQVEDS
Protocol: In the cellular FLT3-ITD phosphorylation assay the murine embryonal fibroblast cell line (MEF) was used, which expresses a high level of exogenously introduced full-length human FLT3-ITD. Stimulation of these cells with human FLT3-Ligand results in receptor tyrosine autophosphorylation. MEF-FLT3-ITD cells were plated in DMEM supplemented with […] in multiwell cell culture plates. After serum-starvation overnight cells were incubated with compounds (90 min at 37° C.) in serum-free medium. […] For stimulation, cells were treated with 50 ng/ml FLT3-ligand for 5 min at room temperature. After cell lysis quantification of receptor autophosphorylation was assessed in 96 well plates via sandwich-ELISA using a kinase specific capture antibody and an antiphosphotyrosine detection antibody.

[2] = system: EOL-1 (acute myeloid eosinophilic leukemia); experiment: CellTiter-Blue Cell Viability Assay, EOL-1; format: cell-based; conditions: Homo sapiens, EOL1
Protocol: (§1) EOL-1 (acute myeloid eosinophilic leukemia), MOLM-13 (acute myeloid leukemia), MONO-MAC-1 (acute monocytic leukemia), and MONO-MVAC-6 (acute monocytic leukemia). In vitro screening was performed by Charles River using the CellTiter-Blue® Cell Viability Assay.

[3] = system: MOLM-13 (acute myeloid leukemia); experiment: CellTiter-Blue Cell Viability Assay, MOLM-13; format: cell-based; conditions: Homo sapiens
Protocol: as §1

[4] = system: MONO-MAC-1 (acute monocytic leukemia); experiment: CellTiter-Blue Cell Viability Assay, MONO-MAC-1; format: cell-based
Protocol: as §1

[5] = system: MONO-MAC-6 (acute monocytic leukemia); experiment: CellTiter-Blue Cell Viability Assay, MONO-MAC-6; format: cell-based; conditions: Homo sapiens
Protocol: as §1

[6] = system: four hematological cell lines; experiment: CellTiter-Blue Cell Viability Assay, all four hematological cell lines; format: cell-based; conditions: geometric mean over EOL-1, MOLM-13, MONO-MAC-1, MONO-MAC-6; read-out: IC50 [μM] Geomean
Protocol: as §1

[7] = Solubility test by UV-Vis spectroscopy of saturated solutions; format: physicochemical; conditions: solvent DMSO
[8] = In vivo MTD study in non-tumor bearing NOD/SCID mice
Protocol: . Group information and dosing details can be seen in the following Table 7.
. Acclimatization occurred for at least 14 days. […] Dosing of 34c was done as a solution in deionized water, initiated on day 1 and continued for 5 days. One mouse in the 50 mg/kg po group and one in the 75 mg/kg po group lost more weight than 10% in the dosing phase of the study. The weight loss in the 50 mg/kg group was observed after receiving three doses of 34c and after receiving four doses of 34c in the […]. A dosing break was made until the end of dosing for both mice and after a couple of days during the 10-day observation period both mice regained their weight. The body weight was measured daily for all three oral treatment groups for the 5 days of dosing and the following 10-day observational period. The mean relative body weight of the oral treatment group can be seen in FIG. 2. […] Since this observation was made only after dosing, it can be considered it was not caused by the compound.

[9] = system: subcutaneous MV4-11 CDX model; experiment: In vivo efficacy study in subcutaneous MV4-11 CDX model in NOD/SCID mice; conditions: for number of living subjects, day of study 5 / number of living subjects, day of study 6 / number of living subjects, day of study 8 / number of living subjects, day of study 13 / number of living subjects, day of study 26 / number of living subjects, day of study 36: 5 mice

T1 sequence (P10721 26-976): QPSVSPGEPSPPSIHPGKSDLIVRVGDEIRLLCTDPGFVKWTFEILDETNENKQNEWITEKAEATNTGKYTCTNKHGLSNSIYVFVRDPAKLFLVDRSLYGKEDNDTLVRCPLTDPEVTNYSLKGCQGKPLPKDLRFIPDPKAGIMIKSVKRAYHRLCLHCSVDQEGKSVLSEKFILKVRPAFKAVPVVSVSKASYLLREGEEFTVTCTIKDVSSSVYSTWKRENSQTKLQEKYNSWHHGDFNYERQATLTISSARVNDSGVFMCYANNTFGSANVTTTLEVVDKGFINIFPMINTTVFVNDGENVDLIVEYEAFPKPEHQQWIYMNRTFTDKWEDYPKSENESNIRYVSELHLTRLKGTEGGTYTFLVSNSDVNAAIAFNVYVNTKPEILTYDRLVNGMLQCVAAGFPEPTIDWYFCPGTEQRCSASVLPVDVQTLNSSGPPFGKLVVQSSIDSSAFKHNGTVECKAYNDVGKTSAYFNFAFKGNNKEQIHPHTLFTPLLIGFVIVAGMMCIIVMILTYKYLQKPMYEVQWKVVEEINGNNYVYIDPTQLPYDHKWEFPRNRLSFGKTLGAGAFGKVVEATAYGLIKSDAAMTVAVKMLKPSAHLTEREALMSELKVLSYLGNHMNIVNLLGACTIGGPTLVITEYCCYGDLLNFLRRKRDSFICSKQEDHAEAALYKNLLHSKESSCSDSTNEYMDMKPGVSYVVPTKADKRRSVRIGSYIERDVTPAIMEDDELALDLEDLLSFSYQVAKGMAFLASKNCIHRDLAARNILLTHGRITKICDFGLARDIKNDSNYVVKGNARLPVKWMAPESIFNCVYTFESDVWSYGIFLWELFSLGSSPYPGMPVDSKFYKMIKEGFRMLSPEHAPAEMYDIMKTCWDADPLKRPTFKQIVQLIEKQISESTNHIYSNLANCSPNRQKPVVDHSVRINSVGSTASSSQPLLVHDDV

In the case of `CN1CCN(Cc2c(O)ccc3[nH]c(C(=O)c4cc5cc(NC(=O)Nc6cc(C(C)(C)C)on6)ccc5o4)cc23)CC1` [Compound 33b, 1-(5-(tert-Butyl)isoxazol-3-yl)-3-(2-(5-hydroxy-4-((4-methylpiperazin-1-yl)methyl)-1H-indole-2-carbonyl)benzofuran-5-yl)urea bis(2,2,2-trifluoroacetate)], the “Solubility Ethanol” value ([1]; bis(2,2,2-trifluoroacetate)) is reported as 3630 µg/mL (≈ 6.36 mM), the IC50 (c-KIT) is reported as 3.2 nM and the IC50 (human FLT3-ITD) is reported as 6.9 nM. For the same molecule, the IC50 [2] was 0.05 nM, the IC50 [3] was 0.00109 µM and the IC50 [4] was 0.1 µM. For the same molecule, the IC50 [5] was 0.00431 µM and the IC50 [6] was 0.00223 µM.
For `CN(C)Cc1c(O)ccc2[nH]c(C(=O)c3cc4cc(NC(=O)Nc5cc(C(C)(C)C)on5)ccc4o3)cc12` [Compound 34b, 1-(5-tert-Butylisoxazol-3-yl)-3-(2-(4-((dimethylamino)methyl)-5-hydroxy-1H-indole-2-carbonyl)benzofuran-5-yl)urea 2,2,2-trifluoroacetate], the “Solubility Ethanol” value ([1]; 2,2,2-trifluoroacetate) was 5940 µg/mL (≈ 11.5 mM), the “Solubility Water” value ([1]; 2,2,2-trifluoroacetate) was less than 100 µg/mL and the IC50 (c-KIT) was 1.8 nM. The IC50 (human FLT3-ITD) was 3.1 nM, the IC50 [2] was 0.02 nM and the IC50 [3] was 0.0002 µM. It also gave an IC50 [4] of 0.1 µM, an IC50 [5] of 0.00065 µM and an IC50 [6] of 0.00074 µM. For the same molecule, the “Solubility DMSO” value [7] was “Soluble”.
For `CN(C)Cc1c(O)ccc2[nH]c(C(=O)c3cc4cc(NC(=O)Nc5cc(C(C)(C)C)on5)ccc4o3)cc12` [Compound 34c, 1-(5-(tert-Butyl)isoxazol-3-yl)-3-(2-(4-(dimethylamino)methyl)-5-hydroxy-1H-indole-2-carbonyl)benzofuran-5-yl)urea Hydrochloride], the “Solubility Ethanol” value ([1]; Hydrochloride) was 2380 µg/mL, the “Solubility Water” value ([1]; Hydrochloride) was 5770 µg/mL and the clinical signs ([8]; 20 mg/kg and 50 mg/kg po treatment groups) was “no clinical signs observed”. For the same molecule, the clinical signs ([8]; 75 mg/kg po, the mouse which lost weight, noticed only after dosing, considered not caused by the compound) was “swelling of the right hind limb and foot”, the “possible (tolerated) dose according to tolerability study” value ([8]; female, NOD/SCID, mouse, in vivo, po, 5 days) was “up to 75 mg/kg” and the “body weight loss in the dosing phase” value ([8]; one mouse in the 50 mg/kg po group and one in the 75 mg/kg po group, daily, 5 days) was greater than 10%. The “first death (day of study)” value ([9]; 20 mg/kg po daily 5 days) was 9 days, the “study day after which 1 mouse had to be sacrificed” value ([9]; 20 mg/kg po daily 5 days (treatment group 2)) was 20 days and the “number of living subjects, day of study 5” value ([9]; 20 mg/kg po daily 5 days) was 5. For the same molecule, the “number of living subjects, day of study 6” value ([9]; 20 mg/kg po daily 5 days) was 5, the “number of living subjects, day of study 8” value ([9]; 20 mg/kg po daily 5 days) was 5 and the “number of living subjects, day of study 13” value ([9]; 20 mg/kg po daily 5 days) was 4. The “number of living subjects, day of study 26” value ([9]; 20 mg/kg po daily 5 days) was 4, the “number of living subjects, day of study 36” value ([9]; 20 mg/kg po daily 5 days) was 0 and the “relative tumor volume, compared with reference compounds” value ([9]; 20 mg/kg po daily 5 days, Midostaurin 50 mg/kg, Hydrochloride) was “better results regarding tumor volume measurements than Midostaurin; also recorded: higher efficiency than midostaurin”. The “number of living subjects, day of study 5” value ([9]; 50 mg/kg po daily 5 days) was 5, the “number of living subjects, day of study 6” value ([9]; 50 mg/kg po daily 5 days) was 5 and the “number of living subjects, day of study 8” value ([9]; 50 mg/kg po daily 5 days) was 5. The “number of living subjects, day of study 13” value ([9]; 50 mg/kg po daily 5 days) was 5, the “number of living subjects, day of study 26” value ([9]; 50 mg/kg po daily 5 days) was 5 and the “number of living subjects, day of study 36” value ([9]; 50 mg/kg po daily 5 days) was 5. The “deaths until day 36” value ([9]; 50 mg/kg po daily 5 days, Hydrochloride) was “No deaths were observed; also recorded: no deaths were noted”, the “relative tumor volume, compared with reference compounds” value ([9]; 50 mg/kg po daily 5 days, references 50 mg/kg, Hydrochloride) was “similarly active as Quizartinib; also recorded: much more active than Midostaurin; also recorded: significantly increased efficiency of 34c compared to midostaurin; also recorded: comparable to the efficiency of quizartinib at the same dose” and the “efficacy and tolerability in terms of overall survival / death counts” value ([9]; 34c 20 and 50 mg/kg, references 50 mg/kg, po daily 5 days, Hydrochloride) was “better tolerated; also recorded: significantly better efficacy and tolerability in terms of overall survival than midostaurin; also recorded: significantly better efficiency and tolerability (in terms of overall survival) than quizartinib”. The “relative body weight loss” value ([9]; po daily 5 days, 34c 20 and 50 mg/kg, Midostaurin and Quizartinib 50 mg/kg) was “less relative body weight loss”.
